Tested on: A375 multi-cell spheroids with HUVEC/MSC, viability
Assay: Anticancer human tumor A375 cell line growth inhibition [GQUAD];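 further: spheroids exposed to compounds for seven days before readout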
Conditions: for IC50: curve of first compound; for viability, T/C: stronger effect = lower value; active means viability on the fitted dose curve at most 10% of control; inactive means the rest
From the text: DNA G-quadruplex Stabilizer Agents in Combinations in Complex Spheroids
A high-throughput screen of multi-cell type tumor spheroids was designed to identify active combinations of DNA G-quadruplex stabilizer agents and targeted small molecules. Complex spheroids include a stromal component modeled by human endothelial cells (HUVEC) and fibroblasts modeled by human mesenchymal stem cells (MSCs). The concentration ranges selected for each drug and investigational agent were based upon clinically achievable concentrations if the clinical Cmax of the agent was known.
Compounds. The drugs and investigational agents: pidnarulex (CX-5461; NSC782164), APTO-253 (NSC789042), BRACO-19 (NSC847499), peposertib (NSC802822), ceralasertib (NSC780249), elimusertib (NSC800525), camonsertib (NSC841442), AZD-1390 (NSC803789), olaparib (NSC753686), talazoparib (NSC767125), ART-558 (NSC835418), sotorasib (NSC818433), MRTX-1133 (NSC836407), SN-38 (NSC673596), topotecan (NSC609699), etoposide (NSC141540), doxorubicin (NSC123127), gemcitabine (NSC613327), 5-fluorouracil (NSC19893), paclitaxel (NSC125973), vemurafenib (NSC761431), panobinostat (NSC761190), R-306465 (JNJ-16241199; NSC773264), adavosertib (NSC754352), TP-3654 (NSC805149), carboplatin (NSC241240), KSQ-4279 (NSC840948), and staurosporine (NSC755774) were obtained from the National Cancer Institute (NCI) Developmental Therapeutics Program Chemical Repository (34). The FDA-approved anticancer drug set is available from the NCI Developmental Therapeutics Program. […] The stock solutions were prepared in dimethyl sulfoxide (DMSO, Sigma-Aldrich, St. Louis, MO, cat. D2650) at 800-fold the tested concentration and stored at -70 degrees C prior to their use. All drugs and investigational agents were tested over a range starting from a high concentration at or near the clinical Cmax and decreasing in half-log increments. If the clinical Cmax for an agent had not been determined, the highest concentration tested was 10 microM.
2.3 Cell Culture. All cells were maintained in an incubator at 37 degrees C and 5% CO2 with 95% humidity. The PDC lines were cultured according to standard operating procedures established by the NCI PDMR. All PDCs were thawed and cultured in Matrigel-coated flasks prepared with a working solution of 1X Ham's F-12 nutrient mix, without supplementation (Invitrogen, cat. 11765054), 100 U/mL penicillin-streptomycin (Invitrogen, cat. 15140122), and 2.5% Matrigel (Corning Inc., cat. 354248) for the first three passages. The 857933-349-R-J2-PDC line was cultured in 6C/Colon 1B media, which includes advanced DMEM/F-12 (Thermo Fisher Scientific, cat. 12634028), 10 mM HEPES (Thermo Fisher Scientific, cat. 15630080), 1X GlutaMAX supplement (Thermo Fisher Scientific, cat. 35050061), 0.1 mg/mL primocin (InvivoGen, cat. ant-pm-2), 10% defined fetal bovine serum, heat inactivated (HyClone Laboratories Inc., cat. SH30070.03HI), 50% L-WRN conditioned media (ATCC, cat. CRL-3276), 1.25 mM N-Acetyl-L-cysteine (Sigma-Aldrich, cat. A9165), 10 mM nicotinamide (Sigma-Aldrich, cat. N0636), 1X B-27 supplement (Thermo Fisher Scientific, cat. 17504044), 1X N-2 supplement (Thermo Fisher Scientific, cat. 17502048), 10 microM Y-27632 dihydrochloride (Tocris Bioscience, cat. 1254), and 50 ng/mL human EGF recombinant protein (Thermo Fisher Scientific, cat. PHG0311). The 485176-168-R4-J1-PDC line was cultured in Panc media, which includes all 6C/Colon 1B media components plus 100 ng/mL human FGF-10 (Thermo Fisher Scientific, cat. 100-26), 500 nM SB-431542 (Selleckchem, cat. S1067), and gastrin (Tocris, cat. 3006).
[…]

[1] = second compound 0.0316 µM, first compound 0.0316 µM
[2] = second compound 0.0316 µM, first compound 0.1 µM
[3] = second compound 0.0316 µM, first compound 0.316 µM
[4] = second compound 0.0316 µM, first compound 1 µM
[5] = second compound 0.0316 µM, first compound 3.16 µM
[6] = second compound 0.0316 µM, first compound 10 µM
[7] = second compound 0.1 µM, first compound 0.0316 µM
[8] = second compound 0.1 µM, first compound 0.1 µM
[9] = second compound 0.1 µM, first compound 0.316 µM
[10] = second compound 0.1 µM, first compound 1 µM
[11] = second compound 0.1 µM, first compound 3.16 µM
[12] = second compound 0.1 µM, first compound 10 µM
[13] = second compound 0.316 µM, first compound 0.0316 µM
[14] = second compound 0.316 µM, first compound 0.1 µM
[15] = second compound 0.316 µM, first compound 0.316 µM
[16] = second compound 0.316 µM, first compound 1 µM
[17] = second compound 0.316 µM, first compound 3.16 µM
[18] = second compound 0.316 µM, first compound 10 µM
[19] = second compound 1 µM, first compound 0.0316 µM
[20] = second compound 1 µM, first compound 0.1 µM
[21] = second compound 1 µM, first compound 0.316 µM
[22] = second compound 1 µM, first compound 1 µM
[23] = second compound 1 µM, first compound 3.16 µM
[24] = second compound 1 µM, first compound 10 µM
[25] = second compound 3.16 µM, first compound 0.0316 µM
[26] = second compound 3.16 µM, first compound 0.1 µM
[27] = second compound 3.16 µM, first compound 0.316 µM
[28] = second compound 3.16 µM, first compound 1 µM
[29] = second compound 3.16 µM, first compound 3.16 µM
[30] = second compound 3.16 µM, first compound 10 µM
[31] = second compound 10 µM, first compound 0.0316 µM
[32] = second compound 10 µM, first compound 0.1 µM
[33] = second compound 10 µM, first compound 0.316 µM
[34] = second compound 10 µM, first compound 1 µM
[35] = second compound 10 µM, first compound 3.16 µM
[36] = second compound 10 µM, first compound 10 µM

C=CC(=O)N1CCN(c2nc(=O)n(-c3c(C)ccnc3C(C)C)c3nc(-c4c(O)cccc4F)c(F)cc23)C(C)C1 (centres undefined) + CN(C)c1ccc(Nc2c3ccc(NC(=O)CCN4CCCC4)cc3nc3cc(NC(=O)CCN4CCCC4)ccc23)cc1
> 10000 nM: IC50 (second compound 0.0316 µM) | IC50 (second compound 0.1 µM) | IC50 (second compound 0.316 µM) | IC50 (second compound 1 µM) | IC50 (second compound 3.16 µM) | IC50 (second compound 10 µM)
inactive: viability, T/C [1] 107% | viability, T/C [2] 95.4% | viability, T/C [3] 94.9% | viability, T/C [4] 95.1% | viability, T/C [5] 110% | viability, T/C [6] 123% | viability, T/C [7] 108% | viability, T/C [8] 96.8% | viability, T/C [9] 103% | viability, T/C [10] 95.4% | viability, T/C [11] 98.6% | viability, T/C [12] 119% | viability, T/C [13] 95.1% | viability, T/C [14] 94.7% | viability, T/C [15] 90.6% | viability, T/C [16] 101% | viability, T/C [17] 101% | viability, T/C [18] 128% | viability, T/C [19] 97.7% | viability, T/C [20] 92.2% | viability, T/C [21] 94.8% | viability, T/C [22] 102% | viability, T/C [23] 109% | viability, T/C [24] 133% | viability, T/C [25] 98.7% | viability, T/C [26] 90.7% | viability, T/C [27] 92.3% | viability, T/C [28] 93.4% | viability, T/C [29] 103% | viability, T/C [30] 126% | viability, T/C [31] 99.9% | viability, T/C [32] 92.2% | viability, T/C [33] 99.8% | viability, T/C [34] 100% | viability, T/C [35] 108% | viability, T/C [36] 107%

CC1COCCN1c1cc(C2(O)CC3CCC(C2)O3)c2cnn(-c3ccn[nH]3)c2n1 (centres undefined) + CN(C)c1ccc(Nc2c3ccc(NC(=O)CCN4CCCC4)cc3nc3cc(NC(=O)CCN4CCCC4)ccc23)cc1
199 nM: IC50 (second compound 0.0316 µM)
203 nM: IC50 (second compound 1 µM)
226 nM: IC50 (second compound 3.16 µM)
active: viability, T/C [5] 11.3% | viability, T/C [6] 6.63% | viability, T/C [11] 8.49% | viability, T/C [12] 6.23% | viability, T/C [17] 10.9% | viability, T/C [18] 7.23% | viability, T/C [24] 7.1% | viability, T/C [30] 7.14% | viability, T/C [35] 11.5% | viability, T/C [36] 6.9%
inactive: viability, T/C [1] 94.4% | viability, T/C [2] 70.8% | viability, T/C [3] 36.1% | viability, T/C [4] 15.5% | viability, T/C [7] 97.4% | viability, T/C [8] 70.4% | viability, T/C [9] 32.7% | viability, T/C [10] 15.7% | viability, T/C [13] 101% | viability, T/C [14] 70.7% | viability, T/C [15] 40.5% | viability, T/C [16] 13.9% | viability, T/C [19] 97.9% | viability, T/C [20] 72.4% | viability, T/C [21] 35.6% | viability, T/C [22] 16.3% | viability, T/C [23] 11.7% | viability, T/C [25] 97.2% | viability, T/C [26] 72.7% | viability, T/C [27] 41% | viability, T/C [28] 17.8% | viability, T/C [29] 11.1% | viability, T/C [31] 87.7% | viability, T/C [32] 67.8% | viability, T/C [33] 39.7% | viability, T/C [34] 16%
188 nM: IC50 (second compound 0.1 µM)
210 nM: IC50 (second compound 0.316 µM)
204 nM: IC50 (second compound 10 µM)

Reference: PubChem BioAssay AID2060485 (Molecular Pharmacology Branch, DTP, NCI, 2025)
